From article PMC8639922, “KSHV transactivator-derived small peptide traps coactivators to attenuate MYC and inhibits leukemia and lymphoma cell growth” (Communications Biology, 2021)
Square brackets hold non-standard residues; d marks the D form. Peptide text beside a SMILES is read from it. Orn = NCCC[C@H](N)C(=O)O; βAla = NCCC(=O)O

How the values were obtained:
BCBL-1 = experiment: Flow cytometry, cell proliferation (Ki67 staining); type: cell-based, human; conditions: BCBL-1, 24 h
Experimental: Leukoreduction system chambers (LRS) from healthy donors were purchased from Vitalant. Peripheral blood mononuclear cells (PBMCs) were prepared by a standard Ficoll gradient method. PBMCs along with THP-1 and BCBL-1 cell lines (2 × 10^6 cells/ml, 0.2 ml 10% FBS/RPMI/DMEM per well of a 96-well plate) were treated with various doses (0–256 μM) of either VGN50 peptide or control mutant peptide for 24 h. Cell death, apoptosis, and proliferation were analyzed by flow cytometry (BD Acuri) after intracellular staining with anti-humanKi67-Alexa488 (Biolegend, 1:100) along with the isotype control antibody, annexin-V-FITC with 7-AAD staining (Biolegend) according to the manufacture’s protocol, Live/dead Fixable Red Dead Cell staining kit (Invitrogen) according to the manufacture’s protocol, or MTT assay. Peptides were commercially synthesized (GenScript) with >90% purity with TFA removal. […]
Isotype control Anti-Ki67 antibody
S-Figure 3. Flow cytometry analyses […]
Repr esent at i ve FACS pl ot s wi t h ancest r y gat i ng st r at egy of Ki 67+ popul at i on f or
BCBL-1 and BC-1 cel l s t r eat ed wi t h PBS wi t h an i sot ype cont r ol ar e shown. Mean +/-SD of
Ki 67% of t ot al BCBL-1 and BC-1 cel l s anal yzed ar e shown i n Fi g. 2e.

[1] = type: in vivo, BALB/c mice; conditions: BALB/c female, 10 mg/kg i.p., 5 day-on 2 day-off, two weeks, average n=5/group
Experimental: Based on strong and selective MYC down-regulation and cell killing activity of cancer cells in vitro, we next studied the therapeutic potential of VGN50 by examining the efficacy of cancer cell killing over toxicities to mice in a PEL xenograft model with BCBL-1 cells. Pilot studies determined that the peptide was well-tolerated in immunocompetent mice when administered as 10 mg/kg peptide via intraperitoneal (i.p.) injection with a 5-day-on 2-day-off schedule for 2 weeks, as shown by no notable changes in body weight, complete blood counts, and serum biochemical properties (Supplementary Fig. 5). Based on the drug schedule, we examined the effects of the peptide on xenograft PEL cell growth. In this established model, BCBL-1 cells grow in the peritoneal cavity resulting in the accumulation of ascites, which can be measured as a body weight gain that corresponds to the volume of ascites. We inoculated male NRG mice with 2 × 10^7 BCBL-1 cells via i.p. injection followed by injections of VGN50 (10 mg/kg), mutant control peptide or PBS, daily for 10 days starting from 2 days after (day 0) tumor inoculation. All mice in the control PBS-treated groups reached the humane endpoint by 10 days (Fig. 6a). […] At the termination point, tumor growth was also validated by flow cytometry analysis of PEL cells in ascites fluid (Fig. 6b, c). […] A similar phenotype is reported in MYC knock-out cardiac myocytes and keratinocytes[56],[57].
PBS VGN50 Mutant Normal ranges […]
Ext ended Dat a Fi gure 5. BALB/ c mi ce ( 8 weeks ol d, female, n=5/ gr oup) wer e i nj ect ed wi t h 10mg/ kg of VGN50 or mut ant pept i de i n 200 uL i.p. wi t h a 5 day-on 2 day off schedul e f or t wo week s . Body wei ght changes wer e measur ed dai l y ( a) . At t he end of t he exper i ment , f r esh bl ood and ser um col l ect ed wer e subj ect ed f or complet e blood count s and serum biochemical pr oper t i es, r espect i vel y ( b) .
(1 picture or pasted object on this page, not shown here)

CC(C)C[C@H](NC(=O)CCNC(=O)[C@H](CCCNC(=N)N)NC(=O)[C@H](CCCNC(=N)N)NC(=O)[C@H](CCCNC(=N)N)NC(=O)[C@H](CCCN)NC(=O)[C@H](CCCNC(=N)N)NC(=O)[C@H](CCCNC(=N)N)NC(=O)[C@H](CCCCN)NC(=O)[C@H](CCCCN)NC(=O)[C@H](N)CCCNC(=N)N)C(=O)N[C@@H](CO)C(=O)N[C@@H](CO)C(=O)N[C@@H](C)C(=O)N[C@@H](C)C(=O)N[C@@H](C)C(=O)NCC(=O)N[C@@H](CC(C)C)C(=O)N[C@@H](Cc1ccc(O)cc1)C(=O)N[C@@H](CCC(N)=O)C(=O)N[C@@H](CC(C)C)C(=O)N[C@@H](CC(=O)O)C(=O)N[C@H](C(=O)O)[C@@H](C)O [Mt-P] (H-[dR]KKRR[Orn]RRR[βAla]LSSAAAGLYQLDT-OH; N-terminus and C-terminus assumed)
Ki67% (BCBL-1; replicate 1): 33.8765%
Ki67% (BCBL-1; replicate 2): 32.9445%
Ki67% (BCBL-1; replicate 3): 29.2345%
Absolute Basophil cells ([1]; normal 0.0-0.1): 0.06 K/ul
Absolute Eosinophil cells ([1]; normal 0.0-0.1): 0.14 K/ul
Total Bilirubin ([1]; normal 0.0-0.2): 0.05 mg/dL
Creatinine ([1]; normal 0.0-0.3): 0.20 mg/dL
Basophil % ([1]; normal 0.0-0.5): 0.70%
Eosinophil % ([1]; normal 0.0-0.8): 2.14%
Alanine Transaminase ([1]; normal 0-403): 82.85 U/L
Aspartate Transaminase ([1]; normal 0-552): 651.13 U/L
Absolute Monocyte cells ([1]; normal 0.2-1.0): 0.43 K/ul
Absolute Neutrophil cells ([1]; normal 1.0-3.7): 1.12 K/ul
Monocyte % ([1]; normal 2.5-7.5): 5.52%
Albumin ([1]; normal 2.9-4.0): 3.67 g/dL
Absolute Lymphocyte cells ([1]; normal 4.3-10.6): 2.54 K/ul
Total Protein ([1]; normal 4.7-6.1): 4.81 g/dL
MPV ([1]; normal 5.0-20.0): 3.05 fL
WBC ([1]; normal 5.1-14.7): 4.22 K/ul
Potassium ([1]; normal 6.9-10.0): 6.90 mmol/L
Phosphorus ([1]; normal 7.5-10.7): 7.46 mg/dL
Calcium ([1]; normal 9.6-11-5): 9.39 mg/dL
Hemoglobin ([1]; normal 11.7-16.2): 7.07 g/dL
RDW % ([1]; normal 12.4-27.0): 10.08%
Neutrophil % ([1]; normal 12.5-31.2): 16.70%
MCH ([1]; normal 13.3-16.7): 7.62 pg
Blood Urea Nitrogen ([1]; normal 15.2-34.7): 20.03 mg/dL
MCHC ([1]; normal 27.6-32.9): 13.18 g/dL
Hematocrit % ([1]; normal 38.3-54.0): 27.72%
MCV ([1]; normal 45.3-53.6): 29.04 fL
Alkaline Phosphatase ([1]; normal 49-172): 129.20 U/L
Lymphocyte % ([1]; normal 62.9-82.7): 31.21%
Chloride ([1]; normal 105-118): 112.13 mmol/L
Glucose ([1]; normal 130-254): 194.73 mg/dL
Sodium ([1]; normal 150-160): 145.25 mmol/L
Platelets ([1]; normal 574-1079): 333.29 K/uL
Amylase ([1]; normal 2463-6660): 1624.05 U/L
